For orientation: EC50 means the midpoint of the concentration-response curve. A higher EC50 goes with a less potent agent.

This passage reports EC50 results from patent US20220056019A1, “FARNESOID X RECEPTOR AGONISTS AND USES THEREOF” (Metacrine, Inc., priority 2018, published 2022).

The test has as its target T1, hFXR (Homo sapiens, UniProt Q96RI1).
T1 construct: expressed in transfected cells; host or cells: CV-1 cells
T1 sequence (Q96RI1 1-486): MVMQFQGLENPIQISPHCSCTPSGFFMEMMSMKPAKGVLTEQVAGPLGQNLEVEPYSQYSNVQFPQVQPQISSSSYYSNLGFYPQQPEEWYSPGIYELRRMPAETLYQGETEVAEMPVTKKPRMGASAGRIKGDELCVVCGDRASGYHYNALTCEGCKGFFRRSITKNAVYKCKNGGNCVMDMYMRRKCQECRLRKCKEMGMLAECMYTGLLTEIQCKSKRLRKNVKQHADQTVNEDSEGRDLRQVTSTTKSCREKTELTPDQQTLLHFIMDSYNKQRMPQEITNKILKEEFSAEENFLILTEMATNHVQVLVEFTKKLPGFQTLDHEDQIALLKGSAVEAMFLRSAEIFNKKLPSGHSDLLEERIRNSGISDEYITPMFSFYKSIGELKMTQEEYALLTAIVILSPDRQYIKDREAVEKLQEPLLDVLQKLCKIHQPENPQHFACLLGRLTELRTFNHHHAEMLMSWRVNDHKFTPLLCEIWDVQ
T1 sequence (P19793 1-462 partner): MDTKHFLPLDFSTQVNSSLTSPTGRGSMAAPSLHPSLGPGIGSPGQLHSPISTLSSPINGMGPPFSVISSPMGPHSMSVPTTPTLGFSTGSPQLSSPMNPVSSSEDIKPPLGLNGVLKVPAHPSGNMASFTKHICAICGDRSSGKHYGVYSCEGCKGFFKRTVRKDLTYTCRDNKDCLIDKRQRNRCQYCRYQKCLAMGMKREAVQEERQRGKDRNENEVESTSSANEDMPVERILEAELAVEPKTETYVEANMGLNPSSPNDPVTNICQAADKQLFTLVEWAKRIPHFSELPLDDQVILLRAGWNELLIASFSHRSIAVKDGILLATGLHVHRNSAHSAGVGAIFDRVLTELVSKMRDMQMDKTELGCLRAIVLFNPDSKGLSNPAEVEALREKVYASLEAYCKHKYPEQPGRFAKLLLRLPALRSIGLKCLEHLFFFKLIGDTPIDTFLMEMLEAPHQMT
As to the kind of experiment: In Vitro FXR Assay (TK): TK-ECRE-luc reporter in transfected CV-1 cells. It counts as cell-based. The note with it: 18 hrs incubation, luminescence. The method in brief: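 CV-1 cells transiently cotransfected with hFXR, hRXR, TK-ECRE-luc reporter and pCMX-YFP plasmids in charcoal-stripped serum medium. Serially diluted compounds added for 18 h at 37° C., then cells lysed and luciferase luminescence measured.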
As for `COc1ccc([C@H]2CC[C@H](CN(c3cc(-c4cnc(C(C)C)s4)ccn3)C(=O)[C@H]3CC[C@H](OC(=O)N4CCN(C)CC4)CC3)CC2)cc1C` [Compound 2.40, trans-4-((4-(2-Isopropylthiazol-5-yl)pyridin-2-yl)((trans-4-(4-methoxy-3-methylphenyl)cyclohexyl)methyl)carbamoyl)cyclohexyl 4-methylpiperazine-1-carboxylate], the EC50 is ≤ 50 nM.
Next, `COc1ccc([C@H]2CC[C@H](CN(c3cc(-c4cnn(C(C)C)c4)ccn3)C(=O)[C@H]3CC[C@H](OC(=O)NC[C@@H](F)CO)CC3)CC2)cc1C` [Compound 2.41, trans-4-((4-(1-Isopropyl-1H-pyrazol-4-yl)pyridin-2-yl) (((trans)-4-(4-methoxy-3-methylphenyl)cyclohexyl)methyl)carbamoyl) cyclohexyl((R)-2-fluoro-3-hydroxypropyl)carbamate]: ≤ 50 nM.
Then `CCc1ncc(-c2ccnc(N(C[C@H]3CC[C@H](c4ccc(OC)c(C)c4)CC3)C(=O)[C@H]3CC[C@H](OC(=O)N4CC(O)C4)CC3)c2)s1` [Compound 2.42, trans-4-((4-(2-Ethylthiazol-5-yl)pyridin-2-yl)((trans-4-(4-methoxy-3-methylphenyl)cyclohexyl)methyl)carbamoyl)cyclohexyl 3-hydroxyazetidine-1-carboxylate], with ≤ 50 nM; and `CCOc1ncc(-c2ccnc(N(C[C@H]3CC[C@H](c4ccc(OC)c(C)c4)CC3)C(=O)[C@H]3CC[C@H](OC(=O)N4CC(O)C4)CC3)c2)s1` [Compound 2.43, trans-4-((4-(2-Ethoxythiazol-5-yl)pyridin-2-yl)((trans-4-(4-methoxy-3-methylphenyl)cyclohexyl)methyl)carbamoyl)cyclohexyl 3-hydroxyazetidine-1-carboxylate], with ≤ 50 nM; and `COc1ccc([C@H]2CC[C@H](CN(c3cc(-c4coc(C(C)C)n4)ccn3)C(=O)[C@H]3CC[C@H](OC(=O)NC(C)C)CC3)CC2)cc1C` [Compound 2.44, trans-4-((4-(2-Isopropyloxazol-4-yl)pyridin-2-yl)(((trans)-4-(4-methoxy-3-methylphenyl)cyclohexyl)methyl)carbamoyl) cyclohexyl isopropylcarbamate], with ≤ 50 nM.
Then `COc1ccc([C@H]2CC[C@H](CN(c3cc(-c4cnc(C5CC5)s4)ccn3)C(=O)[C@H]3CC[C@H](OC(=O)NC(C)C)CC3)CC2)cc1C` [Compound 2.45, trans-4-((4-(2-Cyclopropylthiazol-5-yl)pyridin-2-yl)(((trans)-4-(4-methoxy-3-methylphenyl)cyclohexyl)methyl)carbamoyl)cyclohexyl isopropylcarbamate], with ≤ 50 nM.
For `COc1ccc([C@H]2CC[C@H](CN(c3cc(-c4coc(C5CC5)n4)ccn3)C(=O)[C@H]3CC[C@H](OC(=O)NC(C)C)CC3)CC2)cc1C` [Compound 2.46, trans-4-((4-(2-Cyclopropyloxazol-4-yl)pyridin-2-yl)((trans-4-(4-methoxy-3-methylphenyl)cyclohexyl)methyl)carbamoyl)cyclohexyl isopropylcarbamate], the EC50 was ≤ 50 nM.
Next, `COc1ccc([C@H]2CC[C@H](CN(c3cc(-c4cnc(C(C)C)s4)ccn3)C(=O)[C@H]3CC[C@H](OC(=O)NC(C)C)CC3)CC2)cc1C` [Compound 2.47, trans-4-((4-(2-Isopropylthiazol-5-yl)pyridin-2-yl)((trans-4-(4-methoxy-3-methylphenyl)cyclohexyl)methyl)carbamoyl)cyclohexyl isopropylcarbamate]: ≤ 50 nM; `CCc1nc(-c2ccnc(N(C[C@H]3CC[C@H](c4ccc(OC)c(C)c4)CC3)C(=O)[C@H]3CC[C@H](OC(=O)N4CCN(C)CC4)CC3)c2)co1` [Compound 2.48, trans-4-((4-(2-Ethyloxazol-4-yl)pyridin-2-yl)((trans-4-(4-methoxy-3-methylphenyl)cyclohexyl)methyl)carbamoyl)cyclohexyl 4-methylpiperazine-1-carboxylate]: 50 to 1000 nM; `CCc1nc(-c2ccnc(N(C[C@H]3CC[C@H](c4ccc(OC)c(C)c4)CC3)C(=O)[C@H]3CC[C@H](OC(=O)NCC(C)(C)O)CC3)c2)co1` [Compound 2.49, trans-4-((4-(2-Ethyloxazol-4-yl)pyridin-2-yl)((trans-4-(4-methoxy-3-methylphenyl)cyclohexyl)methyl)carbamoyl)cyclohexyl (2-hydroxy-2-methylpropyl)carbamate]: ≤ 50 nM.
For `COc1ccc([C@H]2CC[C@H](CN(c3cc(-c4cnc(C5CC5)o4)ccn3)C(=O)[C@H]3CC[C@H](OC(=O)NCC(C)(C)O)CC3)CC2)cc1C` [Compound 2.50, trans-4-((4-(2-Cyclopropyloxazol-5-yl)pyridin-2-yl)((trans-4-(4-methoxy-3-methylphenyl)cyclohexyl)methyl)carbamoyl)cyclohexyl (2-hydroxy-2-methylpropyl)carbamate], the EC50 is ≤ 50 nM.
Then `COc1ccc([C@H]2CC[C@H](CN(c3cc(-c4cnn(C(C)C)c4)ccn3)C(=O)[C@H]3CC[C@H](OC(=O)NC4COC4)CC3)CC2)cc1C` [Compound 2.51], with ≤ 50 nM; and `COc1ccc([C@H]2CC[C@H](CN(c3cc(-c4coc(C(C)C)n4)ccn3)C(=O)[C@H]3CC[C@H](OC(=O)NC4COC4)CC3)CC2)cc1C` [Compound 2.52, trans-4-((4-(2-Isopropyloxazol-4-yl)pyridin-2-yl)(((trans)-4-(4-methoxy-3-methylphenyl)cyclohexyl)methyl)carbamoyl)cyclohexyl oxetan-3-ylcarbamate], with ≤ 50 nM.
Regarding `COc1ccc([C@H]2CC[C@H](CN(c3cc(-c4coc(C5CC5)n4)ccn3)C(=O)[C@H]3CC[C@H](OC(=O)NC4COC4)CC3)CC2)cc1C` [Compound 2.53, trans-4-((4-(2-Cyclopropyloxazol-4-yl)pyridin-2-yl)(((trans)-4-(4-methoxy-3-methylphenyl)cyclohexyl)methyl)carbamoyl)cyclohexyl oxetan-3-ylcarbamate], the EC50 was ≤ 50 nM.
Then `COc1ccc([C@H]2CC[C@H](CN(c3cc(-c4cnc(C5CC5)s4)ccn3)C(=O)[C@H]3CC[C@H](OC(=O)NC4COC4)CC3)CC2)cc1C` [Compound 2.54, trans-4-((4-(2-Cyclopropylthiazol-5-yl)pyridin-2-yl)(((trans)-4-(4-methoxy-3-methylphenyl)cyclohexyl)methyl)carbamoyl)cyclohexyl oxetan-3-ylcarbamate], with ≤ 50 nM; and `COc1ccc([C@H]2CC[C@H](CN(c3cc(-c4cnc(C(C)C)s4)ccn3)C(=O)[C@H]3CC[C@H](OC(=O)NC4COC4)CC3)CC2)cc1C` [Compound 2.55, trans-4-((4-(2-Isopropylthiazol-5-yl)pyridin-2-yl)(((trans)-4-(4-methoxy-3-methylphenyl)cyclohexyl)methyl)carbamoyl)cyclohexyl oxetan-3-ylcarbamate], with ≤ 50 nM.
Then `COc1ccc([C@H]2CC[C@H](CN(c3cc(-c4cc(C(C)C)on4)ccn3)C(=O)[C@H]3CC[C@H](OC(=O)N4CC(O)C4)CC3)CC2)cc1C` [Compound 2.56, trans-4-((4-(5-Isopropylisoxazol-3-yl)pyridin-2-yl)(((trans)-4-(4-methoxy-3-methylphenyl)cyclohexyl)methyl)carbamoyl)cyclohexyl 3-hydroxyazetidine-1-carboxylate], with ≤ 50 nM; and `COc1ccc([C@H]2CC[C@H](CN(c3cc(-c4cnn(C(F)(F)F)c4)ccn3)C(=O)[C@H]3CC[C@H](OC(=O)N4CC(O)C4)CC3)CC2)cc1C` [Compound 2.57, trans-4-((((trans)-4-(4-Methoxy-3-methylphenyl)cyclohexyl)methyl) (4-(1-(trifluoromethyl)-1H-pyrazol-4-yl)pyridin-2-yl)carbamoyl)cyclohexyl 3-hydroxyazetidine-1-carboxylate], with ≤ 50 nM.
Next, `COc1ccc([C@H]2CC[C@H](CN(c3cc(-c4cnn(C(F)(F)F)c4)ccn3)C(=O)[C@H]3CC[C@H](OC(=O)NCC(C)(C)O)CC3)CC2)cc1C` [Compound 2.58, trans-4-((((trans)-4-(4-Methoxy-3-methylphenyl)cyclohexyl)methyl) (4-(1-(trifluoromethyl)-1H-pyrazol-4-yl)pyridin-2-yl)carbamoyl)cyclohexyl (2-hydroxy-2-methylpropyl)carbamate]: 50 to 1000 nM; `COc1ccc([C@H]2CC[C@H](CN(c3cc(-c4ccc(N(C)C)nc4)ccn3)C(=O)[C@H]3CC[C@H](OC(=O)N4CC(O)C4)CC3)CC2)cc1C` [Compound 3, trans-4-((6-(Dimethylamino)-[3,4′-bipyridine]-2′-yl)((trans-4-(4-methoxy-3-methylphenyl)cyclohexyl)methyl)carbamoyl)cyclohexyl 3-hydroxyazetidine-1-carboxylate]: ≤ 50 nM.
